{"source": "patent US20030162734A1", "about": "“Modulation of DENN-MADD expression and interactions for treating neurological disorders” (priority 2001, published 2003)", "key": {"[1]": {"system": "DENN", "assay": "Western blot of endogenous DENN in stressed neuroblastoma cultures", "type": "cell-based, mouse", "conditions": "for DENN expression in cultures treated with oxidative stress factors: data not shown", "method": "(§1) A) NSC19 and N2A cells were exposed to 0.1% BSA (Control) or 20 μM fibrillar Aβ(1-40) for 48 h. Cell extracts (100 μg) were immunoblotted with DENN antibody and reprobed with actin antibody. DENN reactive bands appear at ˜200 kD and ˜140 kD. DENN protein expression is higher in NSC19 relative to N2A cells. Aβ exposure dramatically reduces DENN protein expression. Similar results were obtained in three independent experiments. B) Total RNA from Control and Aβ exposed N2A cultures was extracted and RT-PCR using either DENN or actin specific primers was performed. […] Results are representative of three independent experiments. C) Primary rat hippocampal neurons were exposed to 25 μM Aβ(1-42) for 24 h, fixed in 4% PFA and stained with antibodies specific for DENN, phospho-JNK (P-JNK) and counterstained with Hoechst 33342 for nuclei.\nNSC 19 cells were harvested after the appropriate treatments by scraping into cold PBS and centrifuging at 1500 ×g for 5 min at 4° C. Cells were then lysed in buffer A (20 mM Tris-Cl, pH 7.5, 1% Triton X-100, 0.5% NP-40, 0.1 M NaCl, 20 mM β-glycerophosphate, 2 mM EDTA, 2 mM sodium pyrophosphate, 10% glycerol, 10 μg/ml leupeptin and 2 mM phenylmethylsulfonyl fluoride) for 20 min on ice followed by four 5-second sonication bursts on ice. Lysates were centrifuged at 14,000 ×g for 10 min at 4° C. Protein concentrations were measured by the Bradford (1976) assay using bovine serum albumin (BSA) standards. Approximately 50 μg of cell lysates were mixed with 2Xsample buffer and boiled for 5 min. Samples were resolved by 10% SDS-polyacrylamide gel electrophoresis (PAGE), transferred to nitrocellulose membranes, blocked in 5% skim milk and 1% BSA in 1XTBS, and incubated overnight at 4° C. with primary antibody at indicated dilutions. Blots were then washed with TBS buffer containing 0.15% Tween 20 (washing buffer), incubated with a 1:1000 dilution of anti-mouse or anti-rabbit IgG-conjugated horseradish peroxidase for 1 h at room temperature, washed again and processed by ECL detection (Amersham). […]"}, "[2]": {"system": "DENN", "assay": "RT-PCR of DENN RNA in Aβ-exposed N2A cultures", "type": "cell-based, murine", "conditions": "N2A cells", "method": "as §1\nTotal RNA was purified using the RNeasy miniprep kit (Qiagen) and resuspended in 50 μt RNase free water. For each RT-PCR, 1 μg RNA was subjected to One-Step RT-PCR using Omniscript and Sensiscript Reverse transcriptases, HotStarTaq DNA polymerase and 0.5 μM of DENN primers: sense, SEQ ID NO: 6: 5′-[…]-3′ and antisense, SEQ ID NO: 1: 5′-[…]-3′, for 30 cycles with the following conditions: 94° C., 30 s; 60° C., 1 min; 72° C., 1 min. Human and murine actin prim were supplied by Clontech.\nRNA expression was compared in N2A cells (FIG. 6B)."}, "[3]": {"system": "NSC19 cells", "assay": "FACS cell death assay (GFP and PI positive cells) after Aβ(1-40) exposure", "type": "cell-based, mouse", "conditions": "GFP-expressing NSC19 cultures, Aβ for 48 h", "method": "Lyophilized, HPLC purified β-amyloid, Aβ25-35, Aβ1-40 , Aβ1-42 and Aβ40-1 were obtained from either Sigma Chemical Co., U.S. Peptide (Fullerton, Calif.) or Bachem (Torrance, Calif.), respectively. Peptides were reconstituted in double-distilled H2O at 10 mM Aβ. To age the β-amyloid in vitro and produce aggregated, fibrillar Aβ, an aliquot of the Aβ stock solution was dissolved at the indicated concentration in culture medium and incubated at 37° C. for 3 to 5 days. Cells were incubated with the appropriate Aβ peptide concentration for the indicated times and examined for immunofluorescence or cell death assay.\nCells were analyzed by fluorescence-activated cell sorting (FACS) analysis on a FACSTAR PLUS (Becton-Dickinson) and analyzed with Cell Quest software. FACS analysis for two color analysis used GFP and either 7-amino-actinomycin (7-AAD) or propidium iodide\n(§2) (PI) for cell death or GFP and phycoerythrin (PE)-conjugated annexin V for early apoptosis. The percentage of cell death was quantified as those cells expressing GFP and either annexin V or 7-AAD staining relative to total GFP expressing cells. Experiments were performed in triplicate with 10,000 events counted. TUNEL staining was performed according to manufacturer's instructions (Roche).\nNeurotoxicity induced by Aβ(1-40) exposure was further examined using clonal cells expressing GFP-fused mutant forms of DENN. […]"}, "[4]": {"system": "neuronal PC12 cells and sympathetic neurons", "conditions": "cited from earlier work"}, "[5]": {"system": "JNK3", "conditions": "cited from earlier work"}, "[6]": {"system": "JNK", "conditions": "at 10 μM; cited from earlier work"}, "[7]": {"system": "NSC19 cells", "assay": "Annexin V FACS apoptosis assay, NSC19 cells overexpressing DENN or DENN mutants, Aβ(1-40) with or without SB203580", "type": "cell-based, mouse", "conditions": "10 μM SB203580 with Aβ(1-40)", "excerpt": "In contrast to primary CNS cultures, NSC19 are more readily transfectable and highly responsive to apoptosis (Smirnova et al., 1998; Citron et al, 1997). Cells were maintained in high glucose Dulbecco's Modified Eagle's Medium (DMEM) (GIBCO-BRL/Life Technologies, Rockville, Md.) supplemented with 10% fetal bovine serum (FBS) and 1% streptomycin/penicillin. Neuro2A cells (CCL-131), C0S7 (CRL-1651) and human embryonic kidney 293 (CRL-1573) cells were acquired from ATCC. Murine neuroblastoma Neuro2A (N2A) were grown in MEM supplemented with 10% FBS, while COS7 and 293 were maintained in DMEM supplemented with 10% FBS. Cells were plated (5 ×10^5 cells/ml) in 35-mm dishes and transfected with 1 μg total DNA using Effectene or SuperFect (Qiagen) as described by the manufacturer. […]\nCells were analyzed by fluorescence-activated cell sorting (FACS) analysis on a FACSTAR PLUS (Becton-Dickinson) and analyzed with Cell Quest software. […]\nas §2, with “TUNEL staining was performed according to manufacturer's instructions (Roche).” left out"}, "[8]": {"system": "mouse primary hippocampal neurons", "assay": "TUNEL cell death assay in primary hippocampal neurons", "type": "cell-based", "conditions": "for Aβ-induced cell death (TUNEL positive cells): CEP11004 with 25 μM Aβ(1-42), 24 h, Control-AS or DENN-AS treated hippocampal cultures", "method": "Primary mouse and rat hippocampal neurons were prepared from newborn C57B1/6 mouse or Sprague-Dawley rat pups. Briefly, hippocampi were dissected out, minced and digested with 100 U papain and 0.2 μg/ml DNaseI. Following digestion, cells were 'triturated with fire-polished Pasteur pipets and centrifuged in media containing 20 μg/ml BSA. Cells were plated on collagen-coated or poly-lysine coated plates at a density of 3×10^6 cells/ml in Neurobasal medium with B27 supplement and antibiotics (Life Technologies, Gaithersburg, Md.). One day after plating, cells were exposed to 5 μM cytosine arabinoside for 4 d to kill dividing cells. Experiments were performed after 6-8 days in vitro (DIV).\nas §2\nTo assess cell death in neuronal cultures exposed to anti-sense oligonucleotides and Aβ, TUNEL staining was performed (FIG. 9B). […] However, due to the increased TUNEL staining with DENN-AS treated cultures, the overall cell death with Aβ was 10-15% greater in these cultures (FIG. 9C). DENN-AS treatment alone increased cell death by 20%. […] Furthermore, the level of cell death observed with Aβ was abrogated by exposing neuronal cultures to 1 βM CEP11004."}, "[9]": {"system": "JNK", "assay": "JNK immunoprecipitation in vitro kinase assay (GST-c-Jun substrate) from Aβ-exposed N2A clones", "type": "cell-based, murine", "conditions": "1 μM CEP11004 with 25 μM Aβ(1-42), 24 h; N2A clones expressing GFP or DENN", "method": "For kinase assays, cells were exposed to 25 μM Aβ(1-40) in the absence or presence of 1 μM CEP11004 for the specified duration. Cell extracts were prepared, incubated with 5 μl JNK antibody for 4 h at 4° C. and precipitated with 60 μl 50% slurry protein A/G sepharose overnight at 4° C. Immunoprecipitates were washed, then incubated with 1 μg GST-cJun (1-79) and 50 μM ATP in 40 μl for 30 min at 30° C. Reactions were terminated with 40 μl Laemmli buffer, boiled for 4 min, centrifuged and 40 μl was loaded onto 10% SDS-PAGE, transferred to nitrocellulose and probed with phospho-c-Jun (Ser73) antibody.\nN2A clones expressing GFP or DENN were exposed to 25 μM Aβ(1-42) either in the absence or presence of 1 μM CEP11004. Previously, inhibitiori of Aβ-induced cell death in neuronal PC12 cells and sympathetic neurons required less than 300 nM CEP1347 (Troy et al., 2001). After 24 h Aβ exposure, JNK was immunoprecipitated from cell extracts and incubated with GST-c-Jun substrate and ATP in an in vitro kinase assay. The reactions were immunoblotted with antibody specific to phosphorylated c-Jun. […] Thus, reduction of cell death and JNK activity by JNK inhibitors in DENN overexpressing cell cultures supports DENN involvement in c-Jun activation and cellular apoptosis."}}, "note": "“Also recorded” adds a separate entry of the source.", "data": [{"molecule": "OO", "note": "[hydrogen peroxide]", "values": [{"measurement": "DENN expression in cultures treated with oxidative stress factors", "setting": "[1]", "value": "reduction in DENN expression"}]}, {"molecule": "N[C@@H](CCC(=O)O)C(=O)O", "note": "[glutamate]", "values": [{"measurement": "DENN expression in cultures treated with oxidative stress factors", "setting": "[1]", "value": "reduction in DENN expression"}]}, {"molecule": "Aβ: β-amyloid peptide; per FIG. 6 legend 20 μM fibrillar Aβ(1-40)", "values": [{"measurement": "reduction of endogenous DENN protein", "setting": "[1]; NSC19 and N2A cells, 20 μM fibrillar Aβ(1-40), 48 h", "value": "approximately 3 fold"}, {"measurement": "reduction in DENN RNA expression (RT-PCR)", "setting": "[2]", "value": "four-fold"}]}, {"molecule": "Aβ(1-40): β-amyloid peptide 1-40, aged in vitro to aggregated, fibrillar form", "values": [{"measurement": "increase in cell death after Aβ exposure", "setting": "[3]", "value": "five-fold"}]}, {"molecule": "CCSCc1ccc2c(c1)c1c3c(c4c5cc(CSCC)ccc5n5c4c1n2[C@H]1C[C@](O)(C(=O)OC)[C@]5(C)O1)CNC3=O", "note": "[CEP1347]", "values": [{"measurement": "concentration required for inhibition of Aβ-induced cell death", "setting": "[4]", "value": "less than 300 nM"}, {"measurement": "JNK3 activation", "setting": "[5]", "value": "inhibit JNK3 activation"}]}, {"molecule": "C[S+]([O-])c1ccc(-c2nc(-c3ccc(F)cc3)c(-c3ccncc3)[nH]2)cc1", "note": "(centres unmarked) [SB203580, 4-(4-fluorophenyl)-2-(4-methylsulfinylphenyl)-5-(4-pyridyl)-1H-imidazole]", "values": [{"measurement": "JNK activity inhibition", "setting": "[6]", "value": "JNK activity is also inhibited"}, {"measurement": "cell death/apoptosis in DENN-JBD transfected cells with Aβ/SB203580 co-treatment", "setting": "[7]; NSC19 DENN-JBD transfectants, p<0.05", "value": "reproducible increase in cell death; also recorded: slight increase in apoptosis"}, {"measurement": "apoptotic response (GFP and annexin V positive cells) to Aβ in cells overexpressing DENN or DENN-CT", "setting": "[7]; NSC19 cells overexpressing DENN or DENN-CT, p<0.01", "value": "significantly attenuated apoptotic response; also recorded: decreased"}]}, {"molecule": "CCSCc1ccc2c(c1)c1c3c(c4c5cc(CSCC)ccc5n5c4c1n2C1C[C@](O)(C(=O)OC)[C@]5(C)O1)CNC3=O", "note": "[CEP11004]", "values": [{"measurement": "effect on DENN AS-induced cell death", "setting": "[8]; CEP11004, DENN-AS treated hippocampal cultures", "value": "little effect"}, {"measurement": "Aβ-induced cell death (TUNEL positive cells)", "setting": "[8]", "value": "abrogated"}, {"measurement": "Aβ-induced cell death (TUNEL positive cells)", "setting": "[8]; listed as CEP1004", "value": "inhibits effect of Aβ-induced cell death"}, {"measurement": "JNK activity (c-Jun phosphorylation)", "setting": "[9]", "value": "four-fold; also recorded: inhibits Aβ-induced c-Jun phosphorylation"}]}]}
